Measurements: ChEMBL document CHEMBL1201862, “PubChem BioAssay data set” (2004)
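Cultured in 96-well plates, cells were exposed to test compound for 48 hours across five concentrations. GI50 is the concentration that inhibits growth by half.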 Active and inactive are the calls of the source. No stated cut-off is given here; in the data, active = GI50 up to about 1.1 µM and inactive = higher.

Key:
Assay in all cases: growth of human tumour cells (NCI), 48 h
[1] = system: PC-3
[2] = system: Malme-3M
[3] = system: M14
[4] = system: OVCAR-8
[5] = system: SW-620
[6] = system: MDA-N
[7] = system: OVCAR-5
[8] = system: SF-539
[9] = system: K562
[10] = system: ACHN
[11] = system: HOP-92
[12] = system: MOLT-4
[13] = system: NCI-H23
[14] = system: HT-29
[15] = system: EKVX
[16] = system: SK-MEL-5
[17] = system: RXF 393
[18] = system: SK-MEL-2
[19] = system: HCT-15

Compound | GI50 [1] | GI50 [2] | GI50 [3] | GI50 [4] | GI50 [5] | GI50 [6] | GI50 [7] | GI50 [8] | GI50 [9] | GI50 [10] | GI50 [11] | GI50 [12] | GI50 [13] | GI50 [14] | GI50 [15] | GI50 [16] | GI50 [17] | GI50 [18] | GI50 [19] [µM]
CSc1ncnc2c1ncn2CCC(=O)OC(C)(C)C | > 100 µM (inactive) | > 100 µM (inactive) | > 100 µM (inactive) | > 100 µM (inactive) | > 100 µM (inactive) | > 100 µM (inactive) | > 100 µM (inactive) | > 100 µM (inactive) | > 100 µM (inactive) | > 100 µM (inactive) | > 100 µM (inactive) | > 100 µM (inactive) | > 100 µM (inactive) | > 100 µM (inactive) | > 100 µM (inactive) | > 100 µM (inactive) | > 100 µM (inactive) | – | –
C=CC[C@@]12CCC(=O)C=C1CCCC2=O | > 100 µM (inactive) | > 100 µM (inactive) | > 100 µM (inactive) | – | > 100 µM (inactive) | > 100 µM (inactive) | > 100 µM (inactive) | > 100 µM (inactive) | > 100 µM (inactive) | > 100 µM (inactive) | > 100 µM (inactive) | > 100 µM (inactive) | > 100 µM (inactive) | > 100 µM (inactive) | > 100 µM (inactive) | > 100 µM (inactive) | > 100 µM (inactive) | > 100 µM (inactive) | > 100
N/N=c1\c2ccccc2c2cc3c(cc12)/c(=N/N)c1ccccc13 | – | > 100 µM (inactive) | > 100 µM (inactive) | > 100 µM (inactive) | > 100 µM (inactive) | – | > 100 µM (inactive) | > 100 µM (inactive) | > 100 µM (inactive) | > 100 µM (inactive) | > 100 µM (inactive) | > 100 µM (inactive) | > 100 µM (inactive) | > 100 µM (inactive) | > 100 µM (inactive) | > 100 µM (inactive) | > 100 µM (inactive) | > 100 µM (inactive) | > 100
S=c1cc(S)c2c(=S)sc3nc4ccccn4c(=S)c3c2s1 | – | > 100 µM (inactive) | 35.8 µM (inactive) | 33.3 µM (inactive) | > 100 µM (inactive) | – | > 100 µM (inactive) | 41 µM (inactive) | 18.5 µM (inactive) | > 100 µM (inactive) | > 100 µM (inactive) | 27.2 µM (inactive) | > 100 µM (inactive) | 45.2 µM (inactive) | 81.8 µM (inactive) | 38.5 µM (inactive) | > 100 µM (inactive) | 56.2 µM (inactive) | 49.8
C/C=C(\CCOS(=O)(=O)c1ccc(C)cc1)[Si](C)(C)C | – | > 100 µM (inactive) | > 100 µM (inactive) | > 100 µM (inactive) | > 100 µM (inactive) | – | > 100 µM (inactive) | > 100 µM (inactive) | > 100 µM (inactive) | > 100 µM (inactive) | > 100 µM (inactive) | > 100 µM (inactive) | > 100 µM (inactive) | > 100 µM (inactive) | > 100 µM (inactive) | > 100 µM (inactive) | > 100 µM (inactive) | > 100 µM (inactive) | > 100
COc1cccc(N(CN2C(=O)CCC2OC)C(C)=O)c1 (configuration not stated) | > 100 µM (inactive) | – | > 100 µM (inactive) | > 100 µM (inactive) | > 100 µM (inactive) | > 100 µM (inactive) | > 100 µM (inactive) | > 100 µM (inactive) | > 100 µM (inactive) | > 100 µM (inactive) | > 100 µM (inactive) | > 100 µM (inactive) | > 100 µM (inactive) | > 100 µM (inactive) | – | > 100 µM (inactive) | > 100 µM (inactive) | > 100 µM (inactive) | > 100
COCc1cc2c(cc1/C(=C/[N+](=O)[O-])CS(=O)(=O)c1ccccc1)OCO2 | – | – | > 100 µM (inactive) | > 100 µM (inactive) | > 100 µM (inactive) | > 100 µM (inactive) | > 100 µM (inactive) | > 100 µM (inactive) | > 100 µM (inactive) | > 100 µM (inactive) | > 100 µM (inactive) | > 100 µM (inactive) | > 100 µM (inactive) | > 100 µM (inactive) | > 100 µM (inactive) | > 100 µM (inactive) | > 100 µM (inactive) | – | > 100
N#CCCC1(CCC#N)CCCCCCCCC(CCC#N)(CCC#N)C(O)C1O (configuration not stated) | > 100 µM (inactive) | > 100 µM (inactive) | > 100 µM (inactive) | > 100 µM (inactive) | > 100 µM (inactive) | > 100 µM (inactive) | > 100 µM (inactive) | 29.8 µM (inactive) | > 100 µM (inactive) | > 100 µM (inactive) | > 100 µM (inactive) | – | > 100 µM (inactive) | > 100 µM (inactive) | > 100 µM (inactive) | > 100 µM (inactive) | 31.9 µM (inactive) | > 100 µM (inactive) | > 100
